Results reported in patent US20080139520A1, “Altering cholesterol and fat uptake by novel allosteric inhibitors of pancreatic phospholipase A2” (priority 2006, published 2008).

Assays:
[1] = target: T1, WT (wild type) pig PLA2 (Sus scrofa, UniProt P00592); assay: PLA2 catalyzed hydrolysis of sonicated DMPC vesicles with added bile salt (pH-stat); assay type: biochemical
T1 construct: made in house
Experimental: Aqueous dispersion of phospholipid was sonicated in a bath type sonicator. Virtually transparent suspension was annealed for at least 4 hours at room temperature before use. Reaction progress for the PLA2 catalyzed hydrolysis of sonicated DMPC (1 mM) vesicles was measured by pH-stat titration (Radiometer) with 1 mM 2-aminopropanediol in 4 ml reaction buffer containing 5 mM CaCl2 for DMPC (or 0.5 mM for DMPM), 1 mM NaCl, […] atmosphere. Reaction was initiated by adding 0.1 μg enzyme in 1-10 μl solution. The pH stat method was also used for monitoring the rate of hydrolysis of DMPM (0.4 mM) vesicles in the presence of polymyxin [27-29], or of the mixed-micelles of POPC with bile salts in 1:2 ratio [13, 30].
Delay before the onset of the stationary phase of the PLA2 catalyzed reaction progress for the hydrolysis of zwitterionic phospholipids has been extensively characterized. […] The apparent rates in FIG. 3 were obtained from the initial slopes of such reaction progress during which <5% of the total substrate is hydrolyzed.
The CMC of the bile salts used in this study range between 0.8 to 5 mM.

[2] = target: T2, PLA2 Δ62-66 (Sus scrofa, UniProt P00592, DEL84-88); assay: Bile salt binding by Trp emission, Δ62-66 PLA2; parameters: species or system pig
T2 construct: made in house
Experimental: (§1) Fluorescence emission spectrum or time course of the intensity change from tryptophan or the resonance energy transfer probe TMA-DPH were measured in the ratio mode on SLM-Aminco AB2 in a 1 cm cuvette [31, 32] in 1.6 ml stirred buffer containing 1 or 2 μM PLA2 in 10 mM Tris, 5 mM CaCl2 and 20 mM NaCl at pH 8.0 and 24° C. The slit-widths were 4 nm with excitation at 280.
(§2) As shown in [45], the binding of decylsulfate to the R site is accompanied by a modest increase in the emission intensity from Trp-3. […] As summarized in Table 2, the value of KEB depends on the position of Trp, although Hill coefficient remains 1. […] Note that KEB for the EB complex of ΔPLA2 is about 7-fold larger than that for PLA2.

[3] = target: PLA2 K10M (Sus scrofa, UniProt P00592, K32M); assay: Bile salt binding by Trp emission, K10M PLA2; parameters: species or system pig; details: read-out: KEB
Experimental: as §1, §2

[4] = target: T3, PLA2 M20W/W3F (Sus scrofa, UniProt P00592, M42W/W25F); assay: Bile salt binding by Trp emission, M20W/W3F PLA2; parameters: species or system pig; details: read-out: KEB
T3 construct: made in house
Experimental: as §1, §2

[5] = target: T4, pig pancreatic IB PLA2 (Sus scrofa, UniProt P00592); assay: Rate-lowering of hydrolysis of DMPC + 0.05 mole fraction cholate vesicles by pig pancreatic PLA2; assay type: biochemical; details: 0.03 mole fraction; DMPC + 0.05 mole fraction cholate
T4 construct: made in house
Source text: Independent support for selective binding of the rate lowering compounds to a regulatory site on PLA2 comes from the rate-lowering effect of such compounds on the hydrolysis of DMPC vesicles containing 0.05 mole fraction cholate.
Scores of other compounds in guggul were not active.

[6] = target: T5, human pancreatic IB PLA2 (Homo sapiens, UniProt P04054); assay: Hydrolysis of DMPC vesicles by human IB PLA2 with added bile salt; assay type: biochemical; details: 1 mM DMPC
T5 construct: gift of Dr. Suren Tatulian (Orlando, Fla.)
Experimental: Aqueous dispersion of phospholipid was sonicated in a bath type sonicator. Virtually transparent suspension was annealed for at least 4 hours at room temperature before use. Reaction progress for the PLA2 catalyzed hydrolysis of sonicated DMPC (1 mM) vesicles was measured by pH-stat titration (Radiometer) with 1 mM 2-aminopropanediol in 4 ml reaction buffer containing 5 mM CaCl2 for DMPC (or 0.5 mM for DMPM), 1 mM NaCl, and 0.1 mM EDTA at pH 8.0 and 24° C. in the nitrogen purged closed atmosphere. Reaction was initiated by adding 0.1 μg enzyme in 1-10 μl solution. The pH stat method was also used for monitoring the rate of hydrolysis of DMPM (0.4 mM) vesicles in the presence of polymyxin [27-29], or of the mixed-micelles of POPC with bile salts in 1:2 ratio [13, 30].

T1 sequence (P00592 23-146): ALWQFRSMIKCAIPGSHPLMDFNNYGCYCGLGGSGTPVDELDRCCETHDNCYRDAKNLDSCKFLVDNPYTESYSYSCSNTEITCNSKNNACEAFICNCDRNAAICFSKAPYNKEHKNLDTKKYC
T2 sequence (P00592 with tags, fused parts or gaps DEL84-88): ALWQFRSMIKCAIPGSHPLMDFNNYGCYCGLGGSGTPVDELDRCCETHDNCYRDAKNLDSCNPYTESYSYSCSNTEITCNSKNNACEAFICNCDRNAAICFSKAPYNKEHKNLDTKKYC
Chain of PLA2 K10M (P00592 whole entry K32M): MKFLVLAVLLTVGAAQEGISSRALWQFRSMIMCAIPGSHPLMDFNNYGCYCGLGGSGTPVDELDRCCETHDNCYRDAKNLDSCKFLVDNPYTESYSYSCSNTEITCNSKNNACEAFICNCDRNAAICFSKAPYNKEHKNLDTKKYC
T3 sequence (P00592 23-146 W25F/M42W): as the sequence (P00592 23-146) above, with W3F, M20W counted along it
T5 sequence (P04054 23-148): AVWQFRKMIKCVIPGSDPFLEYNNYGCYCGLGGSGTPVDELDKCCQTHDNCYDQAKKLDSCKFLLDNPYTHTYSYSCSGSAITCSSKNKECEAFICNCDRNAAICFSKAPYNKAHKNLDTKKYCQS
T4 sequence (P00592 23-146): as the sequence (P00592 23-146) above

For `C[C@H](CCC(=O)NCCS(=O)(=O)O)[C@H]1CC[C@H]2[C@@H]3[C@H](O)C[C@@H]4C[C@H](O)CC[C@]4(C)[C@H]3CC[C@]12C` [TCDOC, taurochenodeoxycholate], which “concentration at which the rate increase and decrease is complete” value ([1]; 1 mM DMPC vesicles) is on record?
The value was under 0.12 mM.

What about the “peak rate of hydrolysis of DMPC vesicles” value ([1]; 1 mM DMPC, 24° C., cholate above 0.04 mM) of the same molecule?
Its value is 80 s⁻¹.

What about the “bile salt concentration at the maximum rate” value ([1]; 16° C., 1 mM DMPC) of the same molecule?
The value was 0.013 mM.

And the “bile salt concentration at the maximum rate” value ([1]; 29° C., 1 mM DMPC)?
Its value is 0.13 mM.

And the “effect of bile salt on the rate of hydrolysis (monophasic/biphasic)” value ([1]; DMPC vesicles, pancreatic PLA2)?
Its value is “a rate increase and then a rate decrease at higher concentration”.

What about the Kd ([2]; Δ62-66, read-out: KEB) of the same molecule?
Its Kd is 41 µM.

What about the “KEB for the EB complex of ΔPLA2 relative to PLA2” value ([2]; ΔPLA2 versus PLA2) of the same molecule?
Its value is “about 7 fold”.

And the Kd [3]?
Its Kd is 8 µM.

What about the Kd [4] of the same molecule?
Its Kd is 75 µM.

What about the “Relative Rate-lowering (%) Activity, pPLA2” value [5] of the same molecule?
The value was 26%.

And the “effect on rate of hydrolysis of DMPC vesicles by human pancreatic IB PLA2” value [6]?
Its value is “virtually no rate increase”.
